Data set [1] is described as follows: in vitro membrane permeation test (maximum drug flux). Type of data set: physicochemical. Particulars: MFD feed solution 1000 μg/mL, permeate 20 wt % decanol in decane, 37° C., fit 0 to 60 minutes. As for the experimental part:
The NP composition was evaluated in vitro using a membrane permeation test as follows. An Accurel® PP 1 E microporous polypropylene membrane was obtained from Membrana GmbH (Wuppertal, Germany). The membrane was washed in isopropyl alcohol and rinsed in methanol in a sonicating bath for one minute at ambient temperature, and then allowed to air dry at ambient temperature. The feed side of the membrane was then plasma-treated to render it hydrophilic by placing a sample of the membrane in a plasma chamber. The atmosphere of the plasma chamber was saturated with water vapor at a pressure of 550 mTorr. A plasma was then generated using radio frequency (RF) power inductively coupled into the chamber via annular electrodes at a power setting of 50 Watts for 45 seconds. The contact angle of a drop of water placed on the surface of the plasma-treated membrane was about 40°. […]
To form the feed solution, a 13.33 mg sample of the solid NP composition was weighed into the feed reservoir. […] Samples were then diluted in 250 μL IPA and analyzed using HPLC. […] UV absorbance was measured at 254 nm.
The maximum flux of drug across the membrane (in units of μg/cm^2-min) was determined by performing a least-squares fit to the concentration versus time data from 0 to 60 minutes to obtain the slope, multiplying the slope by the permeate volume (5 mL), and dividing by the membrane area (4.9 cm^2).

A short description of data set [2]: in vitro dissolution test of solubility-improved forms in MFD solution (microcentrifuge). It is filed as physicochemical. To be noted: MFD solution (PBS pH 6.5, 0.5 wt % NaTC/POPC), 37° C., 1000 μgA/mL if all dissolved. The method, then:
An in vitro dissolution test was used to determine the dissolution performance of the HPMCAS SDD. […] The test was run in duplicate. The test tubes were placed in a 37° c. temperature-controlled chamber, and an MFD solution consisting of 1.8 mL PBS at pH 6.5 and 290 mosm/kg, containing 7.3 mm sodium taurocholic acid and 1.4 mm of 1-palmitoyl-2-oleyl-sn-glycero-3-phosphocholine (0.5 wt % NaTC/POPC) was added to each tube. The samples were mixed with a vortex mixer for one minute, then centrifuged at 13,000 g and 37° C. for one minute. The resulting supernatant solution was then sampled and diluted 1:5 (by volume) with methanol and analyzed by high-performance liquid chromatography (HPLC). HPLC analysis was performed using a Zorbax SB-C8 column. The mobile phase consisted of 45% 5 mm triethanolamine, adjusted to pH 7.0, and 55% acetonitrile, with a flow rate of 1.5 mL/min. UV absorbance was measured at 254 nm. The contents of each tube were mixed on the vortex mixer and allowed to stand undisturbed at 37° C. until the next sample was taken. Samples were collected at 4, 10, 20, 40, 90, and 1200 minutes.
The concentrations of drug obtained in these samples were used to determine the maximum dissolved concentration of drug and the area under the concentration-versus-time curve during the initial 90 minutes (MDC90 and DAUC90, respectively). […]

The nature of data set [3]: GastroPlus (ACAT) simulation of absorption and pharmacokinetics. To be noted: estimated based on clinical data.
Text: GastroPlus™ is a computer program that simulates absorption and pharmacokinetics for orally dosed drugs.
GastroPlus™ was used to simulate the absorption and pharmacokinetics of the reference and test formulations.
The drug release profiles were used by the software to calculate the drug concentration in each compartment. The estimated human permeability data were computed using a modification of the human fasted log D absorption model to account for permeability. The model then calculated the fraction of the dose absorbed based on the ACAT model using drug concentration, permeability, surface area, and transit time in each compartment. Pharmacokinetic parameters, e.g. volume of distribution, clearance, and micro-constants were added to the software in the pharmacokinetic page, which enabled the software to calculate plasma concentration—time curves.
In the physiology page, a user-supplied physiology file was provided to the program as an input file, consisting of the following transit times for each compartment (hr): 0.1, 0.25, 0.5, 0.5, 1.0, 1.0, 1.0, 8.0, and 24.0 hr.
The model was used to evaluate the performance of the dosage forms of the invention.
A short description of the next data set: physchem. To be noted: pH 7, aqueous buffer.

Values after ≈ are worked out from the molar mass of the structure shown.

Take `Cc1ccc(-c2cc(C(F)(F)F)nn2-c2ccc(S(N)(=O)=O)cc2)cc1` [Crystalline celecoxib, celecoxib]: the “Maximum Drug Flux” value in data set [1] is listed as 1.0 μg/cm^2-min. Besides, in data set [2], the “DAUC90 (area under the concentration-versus-time curve during the initial 90 minutes)” value amounted to 4100 min*μgA/mL and the “MDC90 (maximum dissolved concentration of drug during the initial 90 minutes)” value is on record as 60 μgA/mL.

Regarding `Cc1ccc(-c2cc(C(F)(F)F)nn2-c2ccc(S(N)(=O)=O)cc2)cc1` [celecoxib], in data set [3], the “human permeability (Peff)” value is 112.62 ×10⁻⁶ cm/s. Moreover, in “physchem”, the solubility came to 11.6 µg/mL (≈ 30.4 µM).

(Values after US20100233272A1 (priority 2007, published 2010).)
